Consider two compounds from US7674595B1, “Solid state NMR method for screening cell membrane protein binding drug candidates” (priority 2006, dated 2010).

The target of test [1] is M2 Protein from Influenza A virus (Influenza A virus, UniProt P06821). Type of test: binding. Conditions: spectra with AMT vs without AMT, FIG. 6.
The test system of test [2] is gramicidin A channel. Kind of test: 17O solid-state NMR of 17O-[D-Leu10]-gA in AAO-aligned DMPC bilayers, reversible ion binding. The conditions noted are these: 2.4 M KCl, approx. double occupancy of K+ in the dimeric channel, channel perpendicular to B0, 19.6 T, 40° C., reversible by EDTA wash. How it is done:
The ^17O-[D-Leu^10]-gA was prepared as described previously (29), resulting in material with 57% enrichment of ^17O isotope (H^172O from Cambridge Isotope Labs, Andover, Mass.). The dry peptide was codissolved with DMPC in a 1:16 molar ratio in benzene/ethanol (20:1 v/v) solvent (28) and pipetted onto the nanoporous support. The organic solution containing gA and DMPC was rapidly adsorbed. This commercial substrate, “20 nm” Anodisc® 13 membranes (Whatman International), is shaped as disks 13 mm in diameter that are approximately […] thick. For ^31P NMR experiments AAO disks were cut into strips less than 5 mm in width to fit into a rectangular approximately 600 μL sample coil. We have also designed a special coil for ^17O NMR that required no disk cutting. Typically, stacks of up to 40 AAO strips or disks were employed for NMR measurements. The disks have a well-aligned through-film porous structure with nanochannels directed perpendicular to the disk outer surface.
The manufacturer specifies that these nanoporous substrates have a 20-nm filtration diameter cutoff. […]
The Leu^10 carbonyl in the gramicidin A pore is one of three carbonyl sites involved in K^+ binding. We have monitored K^+ binding using the ^17O resonance of selectively labeled Leu^10 carbonyls of gramicidin A dimers incorporated into DMPC bilayers and aligned using the AAO method. […]

The test system of test [3] is gramicidin A channel. The conditions noted are these: DMPC-gA aligned by glass slides, channel parallel to B0; cited from earlier work.

Chain of M2 Protein from Influenza A virus (P06821 whole entry): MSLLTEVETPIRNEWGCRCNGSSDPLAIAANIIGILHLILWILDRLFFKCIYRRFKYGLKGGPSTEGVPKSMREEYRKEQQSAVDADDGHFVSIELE

On to `NC12CC3CC(CC(C3)C1)C2` [Amantadine], for which the “NMR signal changes upon binding drug (spectral shift of M2 protein)” value in test [1] is on record as “dramatic changes”.

Turning to `[Cl-].[K+]` [KCl], the “downfield shift Δδ of the 17O resonance of Leu10 carbonyl upon ion binding (δ⊥)” value in the test on gramicidin A channel [2] is given as “≈ 18 ppm”. The “shift of the 17O resonance at δ∥ upon K+ binding” value in the test with gramicidin A channel [3] is given as 40 ppm.
